The values that follow come from PMC10143423, “Endoplasmic Reticulum-Targeting Two-Photon Fluorescent Probe for CYP1A Activity and Its Imaging Application in Endoplasmic Reticulum Stress” (Molecules, 2023).

What is called Km is the substrate concentration at which the rate is half of its maximum.

For one data set, the system named is CYP1A. The data set can be described thus: Inhibition of ERNM O-demethylation in human liver microsomes by selective CYP inhibitors. To be noted: inhibitor 2.5 μM, ERNM 10 μM, HLM, fluorescence 558 nm. The format is biochemical. For orientation: Liver microsomes are a subcellular fraction often used to study metabolism.
Data set [1] deals with A549 cells. The data set can be described thus: CYP1A activity imaged by ERNM in DTT-induced ER stress cell model. The format is cell-based. To be noted: DTT 2.5 mM for 0, 1, 2, 4 h, imaged with ERNM 25 μM. As to the method: (§1) A549 cells were grown in RPMI-1640 culture medium (containing 10% FBS). A549 cells were seeded and incubated at 37 °C overnight. Then, A549 cells divided into different experimental groups were treated with DTT (dithiothreitol, the in-system concentration of DTT in the incubation system is 2.5 mM) for 0, 1, 2, and 4 h. The adherent cells were washed, and ERNM was added into the cell culture media (the in-system concentration of ERNM in the incubation system is 25 μM) and incubated for 60 min. Then, the cells were rinsed with PBS for at least 3 times to remove the extracellular probe. The cell images were obtained using confocal microscope (Olympus, FV1000), and the excitation wavelength was set at 800 nm and fluorescent emission windows of 520–560 nm.

The target of a further data set is T1, CYP1A2 (Homo sapiens, UniProt P05177).
T1 construct: purchased BD Biosciences (Woburn, MA, USA)
T1 sequence (P05177 1-516): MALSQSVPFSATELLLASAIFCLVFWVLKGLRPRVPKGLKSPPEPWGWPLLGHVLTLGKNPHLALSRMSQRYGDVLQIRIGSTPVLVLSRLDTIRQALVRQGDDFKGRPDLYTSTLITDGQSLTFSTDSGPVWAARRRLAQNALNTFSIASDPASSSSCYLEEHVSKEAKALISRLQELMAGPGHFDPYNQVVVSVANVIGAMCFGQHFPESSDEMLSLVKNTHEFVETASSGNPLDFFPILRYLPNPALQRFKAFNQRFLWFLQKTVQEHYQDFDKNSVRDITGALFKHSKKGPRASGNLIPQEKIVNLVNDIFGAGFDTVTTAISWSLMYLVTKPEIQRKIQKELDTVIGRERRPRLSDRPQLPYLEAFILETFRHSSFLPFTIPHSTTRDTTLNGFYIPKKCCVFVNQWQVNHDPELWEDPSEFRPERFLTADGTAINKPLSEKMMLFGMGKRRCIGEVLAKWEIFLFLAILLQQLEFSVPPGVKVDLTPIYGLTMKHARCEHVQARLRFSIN
The data set can be described thus: ERNM O-demethylation enzyme kinetics in recombinant CYP1A2. The data set is classed as biochemical. As to the method:
(§2) The incubation sample consisted of NADPH-generating system (including NADP^+, magnesium chloride, glucose-6-phosphate, and glucose-6-phosphate dehydrogenase), and human liver microsomes or recombinant human CYP enzyme in potassium phosphate buffer (100 mM, pH 7.4). The total volume of the incubation mixture is 200 μL. Fluorescent substrate was dissolved in DMSO, and was pre-diluted to the working concentrations. If necessary, blank samples without NADPH or without enzymes will be set up as negative controls. The incubation reaction was initiated by adding NADP^+ after pre-incubation at 37 °C for 3 min. In addition, ice acetonitrile (100 µL) was added into the incubation samples for terminating the reaction progress. Briefly, CYP1A1 (5 nM) or CYP1A2 (5 nM) were incubated with ERNM (1, 5, 10, 15, 50, 100, 200 μM) in 200 μL of the incubation mixture in the presence of NADPH-generating systems. After incubation for 30 min, the dealkylated metabolite was measured by quantifying the intensity of fluorescence signal at 558 nm that was excited at 450 nm. Data were analyzed using GraphPad Prism 8.0 (GraphPad Software, Inc., San Diego, CA, USA).

Data set [2] concerns A549 cells. The data set can be described thus: Colocalization of ERNM with ER-Tracker in living cells. The format is cell-based. The settings on record: co-incubated with ER-Tracker Red, two-photon excitation. As to the method:
The systematic evaluation of ERNM confirmed its application in complex biosystems, subsequent work is related to the investigation of the subcellular localization of ERNM in living cells. Briefly, ERNM was co-incubated with a commercial ER-Tracker (red) in A549 cells, and then imaged under two-photon (ERNM) and single-photon (ER-Tracker) excitation conditions using confocal fluorescence microscope.
as §1

A further data set deals with T2, CYP1A1 (Homo sapiens, UniProt P04798).
T2 construct: purchased BD Biosciences (Woburn, MA, USA)
T2 sequence (P04798 1-512): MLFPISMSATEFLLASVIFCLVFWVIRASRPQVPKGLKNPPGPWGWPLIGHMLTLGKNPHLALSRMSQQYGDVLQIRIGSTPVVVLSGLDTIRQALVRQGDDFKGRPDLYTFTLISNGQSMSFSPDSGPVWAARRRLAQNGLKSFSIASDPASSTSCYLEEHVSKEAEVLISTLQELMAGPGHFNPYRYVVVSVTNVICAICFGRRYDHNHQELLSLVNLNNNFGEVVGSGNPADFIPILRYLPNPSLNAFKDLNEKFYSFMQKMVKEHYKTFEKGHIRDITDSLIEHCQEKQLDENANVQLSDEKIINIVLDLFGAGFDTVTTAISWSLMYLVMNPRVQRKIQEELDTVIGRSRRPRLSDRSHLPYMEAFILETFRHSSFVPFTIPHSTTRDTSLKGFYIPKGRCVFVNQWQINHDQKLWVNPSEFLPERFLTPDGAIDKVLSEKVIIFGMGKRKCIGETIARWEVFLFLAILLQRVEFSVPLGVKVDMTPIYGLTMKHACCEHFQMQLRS
The data set can be described thus: ERNM O-demethylation enzyme kinetics in recombinant CYP1A1. The data set is classed as biochemical. As to the method:
as §2

The test system of data set [3] is recombinant human CYP isoenzymes. The data set can be described thus: Fluorescence response of ERNM toward various recombinant human CYPs. The format is biochemical. To be noted: CYPs 15 nM, ERNM 10 μM, 30 min, 37 °C, fluorescence 558 nm. As to the method: The incubation sample consisted of NADPH-generating system (including NADP^+, magnesium chloride, glucose-6-phosphate, and glucose-6-phosphate dehydrogenase), and human liver microsomes or recombinant human CYP enzyme in potassium phosphate buffer (100 mM, pH 7.4). The total volume of the incubation mixture is 200 μL. Fluorescent substrate was dissolved in DMSO, and was pre-diluted to the working concentrations. If necessary, blank samples without NADPH or without enzymes will be set up as negative controls. The incubation reaction was initiated by adding NADP^+ after pre-incubation at 37 °C for 3 min. […]
To reveal the enzyme specificity for ERNM, the human recombinant CYP enzymes including CYP1A1, CYP1A2, CYP1B1, CYP2A6, CYP2A13, CYP2B6, CYP2C8, CYP2C9, CYP2C18, CYP2C19, CYP2D6, CYP2E1, CYP2J2, CYP3A4, CYP3A5, CYP4A11, CYP4F2, CYP4F3, and CYP4F12 (15 nM) were incubated with ERNM (the in-system concentration of ERNM in the incubation system is 10 μM) in 200 μL of the incubation mixture in the presence of NADPH-generating systems. After incubation for 30 min at 37 °C, the dealkylated metabolite was measured by quantifying the intensity of fluorescence signal at 558 nm that was excited at 450 nm. Data were analyzed using GraphPad Prism 8.0 (GraphPad Software, Inc., San Diego, CA, USA).

Substrate in data set [4]: COc1ccc2c3c(cccc13)C(=O)N(CCNS(=O)(=O)c1ccc(C)cc1)C2=O
The data set can be described thus: ERNM O-demethylation enzyme kinetics in recombinant CYP1A2. The settings on record: other: CYP1A2 5 nM, ERNM 1-200 μM, 30 min, fluorescence 558 nm; pH 7.4; 37.0 °C. The data set is classed as biochemical, human. As to the method: as §2

Substrate in data set [5]: COc1ccc2c3c(cccc13)C(=O)N(CCNS(=O)(=O)c1ccc(C)cc1)C2=O
The data set can be described thus: ERNM O-demethylation enzyme kinetics in recombinant CYP1A1. The data set is classed as biochemical, human. To be noted: other: CYP1A1 5 nM, ERNM 1-200 μM, 30 min, fluorescence 558 nm; pH 7.4; 37.0 °C. As to the method:
as §2

Where [6] appears, read: substrate inhibition constant, Table S1.

For `O=c1cc(-c2ccccc2)oc2c1ccc1ccccc12` [α-naphthoflavone], the “Effect on generation of the ERNM fluorescence signal in human liver microsomes” value with CYP1A is reported as “sufficiently suppressed”.

With `O[C@@H](CS)[C@@H](O)CS` (racemic) [DTT, dithiothreitol], the “Time at which CYP1A activity reached the peak” value in the data set with A549 cells [1] stood at 2 h.

Turning to `COc1ccc2c3c(cccc13)C(=O)N(CCNS(=O)(=O)c1ccc(C)cc1)C2=O` [ERNM], the “Vmax for demethylation catalyzed by CYP1A2” value on CYP1A2 (CYP1A2 5 nM, ERNM 1-200 μM, 30 min) turned out to be 3.32 ± 0.15 nmol/min/nmol P450. Moreover, the “Kinetic behavior of CYP1A2 mediated demethylation” value on CYP1A2 (kinetic plot, Figure S5) is given as “kinetics of substrate inhibition”. Further, on CYP1A2 (setting [6]), the “Ksi of ERNM O-demethylation in CYP1A2” value was found to be 281.2 ± 50.2 µM. Further, the “Subcellular localization (overlap with ER-Tracker)” value with A549 cells [2] was “exclusively target the ER”. In addition, the “Vmax for demethylation catalyzed by CYP1A1” value at CYP1A1 (CYP1A1 5 nM, ERNM 1-200 μM, 30 min) came to 1.92 ± 0.04 nmol/min/nmol P450. At CYP1A1 (kinetic plot, Figure S5), the “Kinetic behavior of CYP1A1 mediated demethylation” value is on record as “kinetics of substrate inhibition”. In addition, on CYP1A1 (setting [6]), the “Ksi of ERNM O-demethylation in CYP1A1” value is 611.3 ± 93.8 µM. Also, in data set [3], the “Selectivity of fluorescence response among CYP isoenzymes” value was “CYP1A1/1A2 mediated the generation of fluorescence signals at 558 nm over other CYP isoenzymes”.

B1: CYP1A2 (Homo sapiens) (protein)
chain: MALSQSVPFSATELLLASAIFCLVFWVLKGLRPRVPKGLKSPPEPWGWPLLGHVLTLGKNPHLALSRMSQRYGDVLQIRIGSTPVLVLSRLDTIRQALVRQGDDFKGRPDLYTSTLITDGQSLTFSTDSGPVWAARRRLAQNALNTFSIASDPASSSSCYLEEHVSKEAKALISRLQELMAGPGHFDPYNQVVVSVANVIGAMCFGQHFPESSDEMLSLVKNTHEFVETASSGNPLDFFPILRYLPNPALQRFKAFNQRFLWFLQKTVQEHYQDFDKNSVRDITGALFKHSKKGPRASGNLIPQEKIVNLVNDIFGAGFDTVTTAISWSLMYLVTKPEIQRKIQKELDTVIGRERRPRLSDRPQLPYLEAFILETFRHSSFLPFTIPHSTTRDTTLNGFYIPKKCCVFVNQWQVNHDPELWEDPSEFRPERFLTADGTAINKPLSEKMMLFGMGKRRCIGEVLAKWEIFLFLAILLQQLEFSVPPGVKVDLTPIYGLTMKHARCEHVQARLRFSIN
notes: purchased BD Biosciences (Woburn, MA, USA)
Take B1: in data set [4], the Km is 2.9 ± 0.5 µM and the kcat stood at 3.32 ± 0.15 nmol/min/nmol P450.

B2: CYP1A1 (Homo sapiens) (protein)
chain: MLFPISMSATEFLLASVIFCLVFWVIRASRPQVPKGLKNPPGPWGWPLIGHMLTLGKNPHLALSRMSQQYGDVLQIRIGSTPVVVLSGLDTIRQALVRQGDDFKGRPDLYTFTLISNGQSMSFSPDSGPVWAARRRLAQNGLKSFSIASDPASSTSCYLEEHVSKEAEVLISTLQELMAGPGHFNPYRYVVVSVTNVICAICFGRRYDHNHQELLSLVNLNNNFGEVVGSGNPADFIPILRYLPNPSLNAFKDLNEKFYSFMQKMVKEHYKTFEKGHIRDITDSLIEHCQEKQLDENANVQLSDEKIINIVLDLFGAGFDTVTTAISWSLMYLVMNPRVQRKIQEELDTVIGRSRRPRLSDRSHLPYMEAFILETFRHSSFVPFTIPHSTTRDTSLKGFYIPKGRCVFVNQWQINHDQKLWVNPSEFLPERFLTPDGAIDKVLSEKVIIFGMGKRKCIGETIARWEVFLFLAILLQRVEFSVPLGVKVDMTPIYGLTMKHACCEHFQMQLRS
notes: as for B1
For B2, in data set [5], the Km worked out at 1.0 ± 0.1 µM and the kcat was 1.92 ± 0.04 nmol/min/nmol P450.
